Measured values as given in patent publication US20190249134A1, “CELL CULTURES AND USE THEREOF” (Boston Biomedical, Inc., priority 2016, published 2019).

Key:
[1] = tested on: A549 cells; experiment: Sphere formation assay in alginate-based 3D cell culture, IC50 compared with clonogenic assay in conventional 2D culture; settings: for IC50 in the alginate-based 3D cell culture relative to the conventional 2D culture: 3D sphere formation vs 2D clonogenic assay, FIG. 4A; for fold change resistance (IC50 in alginate-based 3D cell culture divided by IC50 in conventional 2D culture): FIG. 4B
Excerpt: Without limiting the scope of the present disclosure or appended claims with any particular theory or hypothesis, since the stemness is associated with a resistance to chemotherapy, cells cultured in an alginate-based 3D cell culture may be more resistant to chemotherapy drugs and more sensitive to stemness-targeting drugs than cells cultured in traditional 2D cultures. To evaluate the response of cells to drugs, the IC50 values of cells in both the alginate-based 3D and the conventional 2D cell cultures were determined. FIG. 4A summarizes the IC50 of the CSC-targeting therapies (BBI-608, BBI-503), chemotherapies (doxorubicin and gemcitabine), and a targeted therapy (sunitinib) with respect to A549 cells in the alginate-based 3D cell culture and the traditional 2D culture. […] To compare the effect of culturing cells in the alginate-based 3D and the conventional 2D cell cultures on IC50, the fold change in resistance can be calculated by obtaining the ratio of IC50 value in the alginate-based 3D cell culture to the IC50 value in the conventional 2D culture.
Into each well of a flat bottom-96 well plate, 30 μL suspension of the cells in alginate solution was dispensed. 9 μL of crosslinking solution was then added to each well to form alginate gels and thus embed A549 cells into the gel matrix. The plates were then incubated for 15 minutes at 37° C. to ensure a complete gelling of alginate, and then cultured in Prime XV media overnight. After the overnight culture, the cells were treated with various concentrations of BBI-608, BBI-503, sunitinib, doxorubicin, or gemcitabine for 24 h. The plates were then washed and cultured in fresh media for an additional 11 days before imaging the cultures with Celigo Imaging Cytometer (Nexcelcom Bioscience, Lawrence, Mass.). The number of spheres were counted, and used to calculate the IC50 values using Prism 5 (GraphPad).
A549 cells were plated in 6-well plates (1×10^3 A549 cells/well). After an overnight incubation in DMEM media, the cells were treated with various concentrations of BBI-608 for 24h, or BBI-503, sunitinib, doxorubicin, and gemcitabine for 72 hours. The plates were washed, and cultured in fresh media for an additional 6 days before staining the colonies with Giemsa Stain (Sigma, St. Louis, Mo.). The colonies were imaged using a ChemiDoc™ MP Imaging System (BioRad), and the number of colonies were counted using ImageJ (National Institutes of Health, Bethsada, Md.), and the IC50 values calculated using Prism 5.

[2] = tested on: A549 cellular spheroids; experiment: Efficacy on pre-formed cellular spheroids in alginate-based 3D cell culture (CellTox dead stain); settings: pre-formed A549 spheroids (11 days), concentrations near IC50 values, 7 days after drug treatment; FIG. 5
Method: To evaluate the efficacy of the drugs in diffusion-limited environments, A549 cells were embedded and cultured for 11 days before any drug treatment (BBI-608, BBI-503, gemcitabine, or doxorubicin). Spheroids of A549 cells were pre-formed from single cells embedded in an alginate-based 3D cell culture for 11 days. The pre-formed spheroids were treated with drugs (0.3 μM BBI-608, 2.5 μM BBI-503, 30 μM sunitinib, 4 μM doxorubicin, 0.5 μM gemcitabine) and incubated with the dead stain CellTox Dye. Micrographs were taken 7 days after the drug treatments.
In a 6-well plate, A549 cells were embedded in an alginate-based 3D cell culture and cultured for 11 days before addition of BBI-608, BBI-503, sunitinib, doxorubicin, and gemcitabine. Cells were cultured for an additional 7 days before staining them with CellTox™ Green Dye (Promega) to stain the dead cells. Images of the stained samples were taken using an EVOS fluorescence microscope (Life Technologies, Carlsbad, Calif.).

SMILES	IC50 in the alginate-based 3D cell culture relative to the conventional 2D culture [1]	fold change resistance (IC50 in alginate-based 3D cell culture divided by IC50 in conventional 2D culture) [1]	cell death, share of spheroids [2]
Nc1ccn([C@@H]2O[C@H](CO)[C@@H](O)C2(F)F)c(=O)n1 [gemcitabine, reference compound]	greater		
CC(=O)c1cc2c(o1)C(=O)c1ccccc1C2=O [BBI-608, 2-acetylnaphtho[2,3-b]furan-4,9-dione]	lower	less than single-fold	about 90%
CCN(CC)CCNC(=O)c1c(C)[nH]c(/C=C2\C(=O)Nc3ccc(-c4csc(-c5ccccc5)n4)cc32)c1C [BBI-503]	lower	less than single-fold	about 90%
COc1cccc2c1C(=O)c1c(O)c3c(c(O)c1C2=O)C[C@@](O)(C(=O)CO)C[C@@H]3O[C@H]1C[C@H](N)[C@H](O)[C@H](C)O1 [doxorubicin, reference compound]	greater		
